The record followed here is ChEMBL document CHEMBL2176907, “Identification of multiple 5-HT₄ partial agonist clinical candidates for the treatment of Alzheimer's disease” (J Med Chem, 2012).

Active and inactive are the calls of the source. The calls are words filed in the database; no cut-off is given here. A value given as a limit tells only on which side of the number the result lay.

In data set [1] the target is T1, 5-hydroxytryptamine receptor 4 (Homo sapiens, UniProt Q13639). The data set can be described thus: biochemical.
T1 sequence (Q13639 whole entry): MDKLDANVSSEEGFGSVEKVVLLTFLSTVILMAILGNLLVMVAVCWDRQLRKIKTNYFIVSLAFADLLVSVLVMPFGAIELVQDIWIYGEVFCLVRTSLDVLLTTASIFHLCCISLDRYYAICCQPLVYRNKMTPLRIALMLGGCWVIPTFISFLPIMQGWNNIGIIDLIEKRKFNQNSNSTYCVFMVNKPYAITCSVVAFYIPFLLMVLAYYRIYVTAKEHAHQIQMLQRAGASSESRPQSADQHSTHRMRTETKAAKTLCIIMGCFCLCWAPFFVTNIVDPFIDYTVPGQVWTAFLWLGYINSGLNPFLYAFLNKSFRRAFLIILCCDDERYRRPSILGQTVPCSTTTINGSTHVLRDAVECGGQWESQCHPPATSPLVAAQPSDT
Description: Displacement of [3H]GR113808 from human 5HT4D receptor expressed in HEK293 cells after 30 mins by liquid scintillation counting
Data set [2] is described as follows: Apparent permeability from apical to basal side of RRCK cells at 2 uM after 2 hrs by transwell assay. The data set is classed as ADME, cell-based, Canis lupus familiaris, MDCKII-LE. Particulars: dog, MDCK.
For data set [3], the target named is T1, 5-hydroxytryptamine receptor 4. Nature of the data set: Agonist activity at human 5HT4D receptor expressed in HEK293 cells assessed as cAMP production after 30 mins by HTRF assay. In kind it is functional, cell-based. A general note: Changes in cAMP serve as a functional read-out for many G protein-coupled receptors.
The target in data set [4] is CYP2D6 (Homo sapiens, UniProt P10635). The data set can be described thus: Inhibition of CYP2D6 in human liver microsomes using dextromethorphan as substrate at 3 uM. The data set is classed as ADME, Microsome. Particulars: probe dextromethorphan. (Liver microsomes are a subcellular fraction often used to study metabolism.)
CYP2D6, sequence (P10635 whole entry): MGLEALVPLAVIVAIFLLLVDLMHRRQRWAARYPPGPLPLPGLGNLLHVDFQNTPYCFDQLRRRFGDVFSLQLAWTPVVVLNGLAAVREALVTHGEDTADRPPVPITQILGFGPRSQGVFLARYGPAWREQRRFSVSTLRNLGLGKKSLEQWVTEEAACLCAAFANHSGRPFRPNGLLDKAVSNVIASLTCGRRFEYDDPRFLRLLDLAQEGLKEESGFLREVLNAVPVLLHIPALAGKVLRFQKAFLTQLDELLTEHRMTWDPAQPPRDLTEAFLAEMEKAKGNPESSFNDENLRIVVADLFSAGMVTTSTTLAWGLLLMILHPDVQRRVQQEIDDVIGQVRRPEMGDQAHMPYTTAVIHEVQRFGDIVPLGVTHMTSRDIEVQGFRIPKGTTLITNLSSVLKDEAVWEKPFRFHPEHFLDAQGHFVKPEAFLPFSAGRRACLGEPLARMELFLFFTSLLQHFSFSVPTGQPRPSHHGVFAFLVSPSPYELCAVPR
Data set [5] deals with T1, 5-hydroxytryptamine receptor 4. Nature of the data set: Agonist activity at human 5HT4D receptor expressed in HEK293 cells assessed as cAMP production after 30 mins by HTRF assay relative to 5HT. In kind it is functional, cell-based.
Data set [6] can be described thus: Intrinsic clearance in human liver microsomes. Particulars: read-out: CLH. The data set is classed as ADME, Microsome.
In data set [7] the test system is MDR1. Nature of the data set: in vitro. Particulars: dog, MDCK-MDR1.
Description: Efflux ratio of permeability from basal to apical to apical to basal side of MDCK cells expressing MDR1 at 2 uM after 5 hrs by transwell assay
Data set [8] is described as follows: Oral bioavailability in rat. The note with it: in vivo. In kind it is ADME, organism-based.
The nature of data set [9]: Intrinsic clearance in dog liver microsomes. The data set is classed as ADME, Canis lupus familiaris, Microsome. Particulars: read-out: CLH.
For data set [10], the system named is Canis familiaris. The data set can be described thus: Neurotoxicity in beagle dog assessed as convulsions at 30 mg/kg administered as repeated dose for 7 days measured up to 14 days. Particulars: in vivo. Set-up: dose 30 mg/kg. In kind it is toxicity, organism-based, Canis lupus familiaris.
Data set [11] has as its target T1, 5-hydroxytryptamine receptor 4.
Description: Agonist activity at human 5HT4B receptor expressed in HEK293 cells assessed as increase in cAMP production after 30 mins by HTRF assay
In data set [12] the test system is Plasma. The data set can be described thus: Free AUC (0 to 4 hrs) in sc dosed Sprague-Dawley rat plasma by LC-MS/MS analysis. The data set is classed as ADME, organism-based. The note with it: in vivo.
Data set [13] addresses T1, 5-hydroxytryptamine receptor 4. The source holds these as a separate data set.
Description: Agonist activity at human 5HT4E receptor expressed in HEK293 cells assessed as increase in cAMP production after 30 mins by HTRF assay
The subject of data set [14] is Rattus norvegicus. Nature of the data set: Procognitive activity in Sprague-Dawley rat assessed as increase in acetylcholine level in prefrontal cortex at 5 mg/kg, sc after 3 hrs by brain microdialysis relative to control. Set-up: dose 5 mg/kg. In kind it is functional, organism-based.
Data set [15] concerns the target T1, 5-hydroxytryptamine receptor 4. The data set can be described thus: biochemical. This is another data set of the same source.
Description: Displacement of [3H]GR113808 from human 5HT4A receptor expressed in HEK293 cells after 30 mins by liquid scintillation counting
In data set [16] the target is 5-hydroxytryptamine receptor 4 (Rattus norvegicus) (UniProt Q62758). The data set can be described thus: Agonist activity at 5HT4 receptor in rat oesophagus assessed as reversal of carbamylcholine-induced contraction at 10 uM incubated at 7 mins post carbamylcholine-challenge measured after 30 mins relative to 5HT. The data set is classed as functional.
5-hydroxytryptamine receptor 4 (Rattus norvegicus), sequence (Q62758 whole entry): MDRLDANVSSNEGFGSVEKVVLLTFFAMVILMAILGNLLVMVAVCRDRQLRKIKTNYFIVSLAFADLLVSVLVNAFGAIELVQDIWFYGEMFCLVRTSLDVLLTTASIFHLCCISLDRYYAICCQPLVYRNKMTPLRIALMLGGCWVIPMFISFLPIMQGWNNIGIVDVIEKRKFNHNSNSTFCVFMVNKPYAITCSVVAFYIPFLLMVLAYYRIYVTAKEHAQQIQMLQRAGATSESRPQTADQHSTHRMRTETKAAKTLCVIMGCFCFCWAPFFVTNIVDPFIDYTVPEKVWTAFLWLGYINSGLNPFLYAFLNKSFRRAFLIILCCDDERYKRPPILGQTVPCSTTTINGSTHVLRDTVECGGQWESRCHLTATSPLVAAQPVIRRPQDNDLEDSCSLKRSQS
For data set [17], the target named is T2, 5-hydroxytryptamine receptor 4 (Rattus norvegicus, UniProt Q62758).
T2 sequence (Q62758 whole entry): as above
Description: Displacement of [3H]GR113808 from 5HT4 receptor in rat striatal membrane after 30 mins by liquid scintillation counting
The nature of data set [18]: Clearance in iv dosed rat. In kind it is ADME, organism-based. The note with it: in vivo.
The test system of data set [19] is Brain. The data set can be described thus: Free AUC (0 to 4 hrs) in sc dosed Sprague-Dawley rat brain by LC-MS/MS analysis. The data set is classed as ADME, organism-based. Particulars: in vivo.
Data set [20] deals with T1, 5-hydroxytryptamine receptor 4. This is another data set of the same source.
Description: Agonist activity at human 5HT4A receptor expressed in HEK293 cells assessed as increase in cAMP production after 30 mins by HTRF assay
In data set [21] the test system is Rattus norvegicus. The data set can be described thus: Gastrointestinal toxicity in male Sprague-Dawley rat assessed as mucosal injury at 100 mg/kg administered as repeated dose for 7 days measured up to 14 days. More on the design: dose 100 mg/kg. Particulars: in vivo. In kind it is organism-based.
In data set [22] the test system is Rattus norvegicus. Nature of the data set: Receptor occupancy of 5HT4 receptor in Sprague-Dawley rat brain at 5 mg/kg, sc up to 4 hrs. The data set is classed as functional. The note with it: route subcutaneous.
Data set [23] in a line: Ratio of free drug concentration in brain to free drug concentration in plasma in sc dosed Sprague-Dawley rat. The data set is classed as ADME, organism-based. Particulars: read-out: K(p,uu,brain).
A short description of data set [24]: Clearance in iv dosed dog. In kind it is ADME, organism-based, Canis lupus familiaris. The note with it: in vivo.
The nature of data set [25]: Oral bioavailability in dog. In kind it is ADME, organism-based, Canis lupus familiaris. The note with it: in vivo.
The subject of data set [26] is Rattus norvegicus. Nature of the data set: Displacement of [3H]SB207145 from 5HT4 receptor in sc dosed Sprague-Dawley rat striatal membrane incubated for 45 mins prior to [3H]SB207145-adminsitration measured after 15 mins. In kind it is functional, organism-based. The note with it: Striatum. (Loss of bound radioactivity is the signal in a displacement assay; it reports binding, not function.)

The target of data set [27] is T2, 5-hydroxytryptamine receptor 4. This is another data set of the same source.
Description: Agonist activity at rat 5HT4E receptor expressed in HEK293 cells assessed as increase in cAMP production after 30 mins by HTRF assay
The test system of data set [28] is Canis familiaris. Nature of the data set: Cardiotoxicity in beagle dog assessed as increase in systolic blood pressure at 0.1 mg/kg administered as repeated dose for 7 days measured up to 1 month. The data set is classed as toxicity, organism-based, Canis lupus familiaris, Artery. More on the design: dose 0.1 mg/kg. The note with it: in vivo, 168 h.
For data set [29], the target named is T2, 5-hydroxytryptamine receptor 4. This is another data set of the same source.
Description: Agonist activity at rat 5HT4S receptor expressed in HEK293 cells assessed as increase in cAMP production after 30 mins by HTRF assay
Data set [30] deals with Rattus norvegicus. Nature of the data set: Gastrointestinal toxicity in female Sprague-Dawley rat assessed as mucosal injury at 30 mg/kg administered as repeated dose for 7 days measured up to 14 days. In kind it is organism-based. More on the design: dose 30 mg/kg. Particulars: in vivo.
Data set [31] deals with T2, 5-hydroxytryptamine receptor 4. This is another data set of the same source.
Description: Agonist activity at rat 5HT4L receptor expressed in HEK293 cells assessed as increase in cAMP production after 30 mins by HTRF assay
Data set [32] has as its system Rattus norvegicus. Nature of the data set: Gastrointestinal toxicity in Sprague-Dawley rat assessed as decrease in food intake administered as repeated dose for 7 days measured up to 14 days. The note with it: in vivo. In kind it is organism-based.
Data set [33] deals with Rattus norvegicus. Nature of the data set: Gastrointestinal toxicity in female Sprague-Dawley rat assessed as reduction in body weight at 30 mg/kg administered as repeated dose for 7 days measured up to 14 days. The data set is classed as organism-based. More on the design: dose 30 mg/kg. Particulars: in vivo.
For data set [34], the target named is T1, 5-hydroxytryptamine receptor 4. Nature of the data set: biochemical. This is another data set of the same source.
Description: Displacement of [3H]GR113808 from human 5HT4B receptor expressed in HEK293 cells after 30 mins by liquid scintillation counting
The nature of data set [35]: Intrinsic clearance in rat liver microsomes. In kind it is ADME, Microsome. Particulars: read-out: CLH.
Data set [36] relates to Canis familiaris. The data set can be described thus: Gastrointestinal toxicity in beagle dog assessed as decrease in food intake administered as repeated dose for 7 days measured up to 14 days. The data set is classed as organism-based, Canis lupus familiaris. Particulars: in vivo.
Data set [37] deals with Rattus norvegicus. Nature of the data set: Gastrointestinal toxicity in male Sprague-Dawley rat assessed as reduction in body weight at 100 mg/kg administered as repeated dose for 7 days measured up to 14 days. The note with it: in vivo. In kind it is organism-based. More on the design: dose 100 mg/kg.
Data set [38] relates to Canis familiaris. Nature of the data set: Gastrointestinal toxicity in beagle dog assessed as emesis at 20 mg/kg administered as repeated dose for 7 days measured up to 14 days. In kind it is organism-based, Canis lupus familiaris. More on the design: dose 20 mg/kg. The note with it: in vivo.
The target of data set [39] is T1, 5-hydroxytryptamine receptor 4. Nature of the data set: biochemical. This is another data set of the same source.
Description: Displacement of [3H]GR113808 from human 5HT4E receptor expressed in CHO cells after 30 mins by liquid scintillation counting

One may read the Ki as a dissociation constant, usually derived from enzyme kinetics or from competition with a known ligand. Read a high Ki as a looser hold on the target. Broadly, the Papp A→B is how fast a substance crosses the layer from the apical side. By EC50 is commonly meant the midpoint of the concentration-response curve. For orientation: inhibition means the change of the read-out against control, counted positive when it falls. As a reminder, the Emax is the maximal effect, on the per cent scale that the assay sets. As to `CC(C)COc1cccc2onc(OCC3CCN(CC4(O)CCOCC4)CC3)c12`, the Ki in data set [1] worked out at 0.36 nM. In addition, the Papp A→B at 2 h, 2 µM in [2] was 3.8 ×10⁻⁶ cm/s. In addition, the EC50 in data set [3] worked out at 0.98 nM. In addition, the inhibition at 3 µM in data set [4] came out at 54%. Besides, the Emax in data set [5] amounted to 85%. In data set [6], the CLint scaled came to 72 mL/min/kg.

A word on the efflux ratio: it is a quotient of directional permeabilities that is used to spot active efflux. `O[C@@H]1CC[C@@H](Oc2cccc3onc(OCC4CCN(CC5(O)CCOCC5)CC4)c23)C1`: in data set [1], the inhibition constant (Ki) worked out at 0.5 nM. Moreover, the apical-to-basolateral permeability (Papp A→B) at 2 h, 2 µM in data set [2] turned out to be 15 ×10⁻⁶ cm/s. Also, in data set [7], the efflux ratio at 5 h, 2 µM is 2.2. Further, the concentration giving a half-maximal response (EC50) in data set [3] was found to be 0.4 nM. The molecule further gave an inhibition at 3 µM in data set [4] of 37%. The Emax in data set [5] was found to be 28%. For the same molecule, in [6], the CLint scaled came out at 56 mL/min/kg.

Broadly, the bioavailability is the share of a dose that reaches the circulation, judged against a reference dose that is usually intravenous. Lower therefore signals little systemic uptake. By clearance is commonly meant the volume of plasma or blood freed of the substance per unit of time. Regarding `CC(C)n1c(=O)n(C(=O)NCC2CCN(CC3(O)CCOCC3)CC2)c2cc(F)ccc21`, the bioavailability in [8] amounted to 40%; in [25], 100%. The CLint scaled in data set [9] was < 5.6 mL/min/kg; in [35], 45.2 mL/min/kg; in data set [6], 24.3 mL/min/kg. In addition, the inhibition constant Ki in data set [1] stood at 1.7 nM; in data set [15] it was 4.4 nM; in [17], 1.5 nM; in [34] it was 5.5 nM; in [39], 4.9 nM. For the same molecule, the Papp A→B at 2 h, 2 µM in data set [2] amounted to 21.9 ×10⁻⁶ cm/s. Moreover, the efflux ratio at 5 h, 2 µM in data set [7] came out at 1.41. Moreover, the half-maximal effective concentration (EC50) in [3] was 0.9 nM; in data set [11] it was 1.2 nM; in data set [13], 0.98 nM; in data set [20], 0.38 nM; in data set [27], 1.59 nM; in data set [29] it was 0.9 nM. It took 0.96 nM to reach a half-maximal effect in data set [31] (EC50). Besides, the Activity entry was “Toxic” in [10]; 70% in data set [16]; “Toxic” in data set [21]; “Dose-dependent effect” in data set [26]; “Toxic” in [28]; “Toxic” in [30]. Moreover, the Activity entry in [32], in data set [33], in data set [36], in [37] and in data set [38] was “Toxic” each time. The fAUC was determined as 0.0276 µM·h in [12] and 0.0443 µM·h in [19]. For the same molecule, the result in [14] was Active. The clearance in data set [18] amounted to 12.6 mL/min/kg; in data set [24], 40 mL/min/kg. The Occ in data set [22] is recorded as >90%. Moreover, the Kp uu in data set [23] is 1.6. In addition, the Emax in data set [5] came out at 86%.

As to `CCCCN1CCC(COc2noc3cccc(OC4CCCC4)c23)CC1`, in data set [1], the affinity corresponds to a Ki of 0.74 nM. In addition, the apical-to-basolateral permeability (Papp A→B) at 2 h, 2 µM in [2] was 2.4 ×10⁻⁶ cm/s. Moreover, the EC50 in data set [3] came out at 1.2 nM. In [4], testing at 3 µM gave an inhibition of 79%. In [5], the Emax is 81%. Further, the CLint scaled in data set [6] was found to be 77 mL/min/kg.

In turn, `CCCCN1CCC(COc2noc3cccc(OCC(C)(C)C)c23)CC1` gave an inhibition constant (Ki) in data set [1] of 5.2 nM. Also, the EC50 in data set [3] was 6.3 nM. Besides, the inhibition at 3 µM in data set [4] was determined as 93%. Moreover, the Emax in data set [5] turned out to be 95%.
